In patent US6117888A, “Thrombin inhibitors” (Merck & Co., Inc., priority 1999, dated 2000):
Where two headings read alike, the source gives them in different places.

Target: human α-thrombin (Homo sapiens, UniProt P00734)
Assay: In vitro assay for determining proteinase inhibition, human α-thrombin
Format: biochemical
Procedure: The assays were carried out at 25° C. in 0.05 M TRIS buffer pH 7.4, 0.15 M NaCl, 0.1% PEG. Trypsin assays also contained 1 mM CaCl2.
Concentrations of stock solutions of Z-GPR-afc were determined from measurements of absorbance at 380 nm of the 7-amino-4-trifluoromethyl coumarin produced upon complete hydrolysis of an aliquot of the stock solution by thrombin.
Times required to achieve equilibration between enzyme and inhibitor were determined in control experiments. Initial velocities of product formation in the absence (Vo) or presence of inhibitor (Vi) were measured. Assuming competitive inhibition, and that unity is negligible compared Km /[S], […] (where [S], [I], and e respectively represent the total concentrations, of substrate, inhibitor and enzyme), the equilibrium constant (Ki) for dissociation of the inhibitor from the enzyme can be obtained from the dependence of Vo /Vi on [I] shown in equation 1.

[1] = thrombin, 25° C., 0.05 M TRIS buffer pH 7.4, 0.15 M NaCl, 0.1% PEG, read-out: Inhibitory activity, Ki

SMILES	Ki [nM]	Ki [1] [nM]
Cc1nc(N)ccc1CNC(=O)Cn1c(C)cc2c(c1=O)NCN(CC1CC1)S2(=O)=O	< 5	
Cc1nc(N)ccc1CNC(=O)Cn1c(C)cc(S(=O)(=O)N2CCCC2)c(N)c1=O		< 5
Cc1nc(N)ccc1CNC(=O)Cn1c(C)cc(S(=O)(=O)NCC2CCC2)c(N)c1=O	< 5	
Cc1nc(N)ccc1CNC(=O)Cn1c(C)cc2c(c1=O)NCCS2(=O)=O		> 5
Cc1nc(N)ccc1CNC(=O)Cn1c(C)cc2c(c1=O)NCC(c1ccccc1)S2(=O)=O (centres unmarked)		> 5
